Experimental data published in US12325706B2, “Polymorphic form of sepiapterin” (PTC Therapeutics MP, Inc., priority 2016, dated 2025).
One block for each molecule: values may come before it.

How the values were obtained:
[1] = Storage stability of sepiapterin polymorph forms, HPLC purity; format: physicochemical; parameters: Impurity RRT 1.06 (HPLC) / Impurity RRT 1.08 (HPLC) / Impurity RRT 1.17 (HPLC) / Impurity RRT 1.21 (HPLC) / Impurity RRT 1.25 (HPLC) / Impurity RRT 0.62 (HPLC) / Impurity RRT 0.89 (HPLC) / Impurity RRT 0.95 (HPLC) / Impurity RRT 0.60 (HPLC): unit not given here; conditions: for Purity of initial samples by HPLC: before storage; for Stability on storage as determined by HPLC, comparison of forms in words: storage up to 4 weeks at RT
Protocol: (§1) Form A and F samples were placed in chambers with silica gel to remove water (the relative humidity was measured to be ˜10% RH) at different temperatures. Form D samples were placed in chambers with water (relative humidity was estimated to be ˜100% RH) at different temperatures.
(§2) The HPLC purities and XRD patterns were obtained for each of Form A/F/D samples stored at various temperatures.
Samples of sepiapterin free base polymorph Forms D, F, and A were stored at room temperature (RT), 35° C., and 50° C. The samples were analyzed by HPLC at 1 week and 4 week intervals.

[2] = Storage stability of sepiapterin polymorph forms, form change by XRD; format: physicochemical
Protocol: as §1, §2

[3] = 35° C./10% RH, 1 w, listed as Polymorph F
[4] = 35° C./10% RH, 4 w, listed as Polymorph F
[5] = 50° C./10% RH, 1 w, listed as Polymorph F
[6] = 50° C./10% RH, 4 w, listed as Polymorph F
[7] = RT/10% RH, 1 w, listed as Polymorph F
[8] = RT/10% RH, 4 w, listed as Polymorph F
[9] = storage 4 weeks, 35° C., 10% RH
[10] = storage 4 weeks, 50° C., 10% RH
[11] = storage 1 week, 35° C., 100% RH
[12] = storage 1 week, 50° C., 100% RH
[13] = storage 4 weeks, 35° C., 100% RH
[14] = storage 4 weeks, 50° C., 100% RH

Impurity RRT 0.60 (HPLC) ([1]; 35° C./10% RH, 1 w): <0.05
Impurity RRT 0.95 (HPLC) [1, 3]: 0.35
Impurity RRT 1.08 (HPLC) [1, 3]: 0.06
Impurity RRT 1.17 (HPLC) [1, 3]: 0.15
Sepiapterin RRT 1.00 (HPLC), amount of sepiapterin [1, 3]: 99.43%
Impurity RRT 0.60 (HPLC) ([1]; 35° C./10% RH, 4 w): <0.05
Impurity RRT 1.08 (HPLC) ([1]; 35° C./10% RH, 4 w): <0.05
Impurity RRT 0.95 (HPLC) [1, 4]: 0.42
Impurity RRT 1.17 (HPLC) [1, 4]: 0.15
Sepiapterin RRT 1.00 (HPLC), amount of sepiapterin [1, 4]: 99.43%
Impurity RRT 0.60 (HPLC) ([1]; 50° C./10% RH, 1 w): <0.05
Impurity RRT 0.95 (HPLC) [1, 5]: 0.58
Impurity RRT 1.08 (HPLC) [1, 5]: 0.11
Impurity RRT 1.17 (HPLC) [1, 5]: 0.15
Sepiapterin RRT 1.00 (HPLC), amount of sepiapterin [1, 5]: 99.15%
Impurity RRT 0.60 (HPLC) ([1]; 50° C./10% RH, 4 w): 0.12
Impurity RRT 1.17 (HPLC) ([1]; 50° C./10% RH, 4 w): 0.17
Impurity RRT 0.95 (HPLC) [1, 6]: 0.86
Impurity RRT 1.08 (HPLC) [1, 6]: <0.05
Sepiapterin RRT 1.00 (HPLC), amount of sepiapterin [1, 6]: 98.85%
Sepiapterin RRT 1.00 (HPLC), amount of sepiapterin ([1]; 50° C./10% RH, 4 w, listed as polymorph F): 98.85%
Impurity RRT 0.60 (HPLC) ([1]; Initial): <0.05
Impurity RRT 1.08 (HPLC) ([1]; Initial): <0.05
Impurity RRT 1.17 (HPLC) ([1]; Initial): 0.17
Impurity RRT 0.95 (HPLC) ([1]; Initial, listed as Polymorph F): 0.09
Sepiapterin RRT 1.00 (HPLC), amount of sepiapterin ([1]; Initial, listed as Polymorph F): 99.74%
Sepiapterin RRT 1.00 (HPLC), amount of sepiapterin ([1]; Initial, listed as polymorph F): 99.74%
Impurity RRT 0.60 (HPLC) ([1]; RT/10% RH, 1 w): <0.05
Impurity RRT 1.17 (HPLC) ([1]; RT/10% RH, 1 w): 0.16
Impurity RRT 0.95 (HPLC) [1, 7]: 0.29
Impurity RRT 1.08 (HPLC) [1, 7]: 0.14
Sepiapterin RRT 1.00 (HPLC), amount of sepiapterin [1, 7]: 99.42%
Impurity RRT 0.60 (HPLC) ([1]; RT/10% RH, 4 w): <0.05
Impurity RRT 1.08 (HPLC) ([1]; RT/10% RH, 4 w): <0.05
Impurity RRT 1.17 (HPLC) ([1]; RT/10% RH, 4 w): 0.16
Impurity RRT 0.95 (HPLC) [1, 8]: 0.30
Sepiapterin RRT 1.00 (HPLC), amount of sepiapterin [1, 8]: 99.54%
Purity of initial samples by HPLC [1]: 99.7 area %
% of Initial ([1]; storage 1 week, 35° C., 10% RH): 99.7%
Purity (area %) ([1]; storage 1 week, 35° C., 10% RH): 99.4 area %
% of Initial ([1]; storage 1 week, 50° C., 10% RH): 99.4%
Purity (area %) ([1]; storage 1 week, 50° C., 10% RH): 99.2 area %
% of Initial ([1]; storage 1 week, RT, 10% RH): 99.7%
Purity (area %) ([1]; storage 1 week, RT, 10% RH): 99.4 area %
% of Initial [1, 9]: 99.7%
Purity (area %) [1, 9]: 99.4 area %
% of Initial [1, 10]: 99.1%
Purity (area %) [1, 10]: 98.9 area %
% of Initial ([1]; storage 4 weeks, RT, 10% RH): 99.8%
Purity (area %) ([1]; storage 4 weeks, RT, 10% RH): 99.5 area %
Form change ([2]; storage 1 week, 35° C., 10% RH): No
Form change ([2]; storage 1 week, 50° C., 10% RH): No
Form change ([2]; storage 1 week, RT, 10% RH): No
Form change [2, 9]: No
Form change [2, 10]: No
Form change ([2]; storage 4 weeks, RT, 10% RH): No
SMILES: C[C@H](O)C(=O)C1=Nc2c(nc(N)[nH]c2=O)NC1 [Form F, sepiapterin]
Stability on storage as determined by HPLC, comparison of forms in words ([1]; 35° C., 50° C., listed as polymorph F): significantly greater stability than polymorph A

Impurity RRT 0.62 (HPLC) ([1]; 35° C./100% RH, 1 w): <0.05
Impurity RRT 0.95 (HPLC) ([1]; 35° C./100% RH, 1 w): 0.86
Impurity RRT 1.08 (HPLC) ([1]; 35° C./100% RH, 1 w): 0.14
Impurity RRT 1.17 (HPLC) ([1]; 35° C./100% RH, 1 w): 0.17
Sepiapterin RRT 1.00 (HPLC), amount of sepiapterin ([1]; 35° C./100% RH, 1 w): 98.83%
Impurity RRT 0.62 (HPLC) ([1]; 35° C./100% RH, 4 w): 0.09
Impurity RRT 0.95 (HPLC) ([1]; 35° C./100% RH, 4 w): 1.04
Impurity RRT 1.08 (HPLC) ([1]; 35° C./100% RH, 4 w): <0.05
Impurity RRT 1.17 (HPLC) ([1]; 35° C./100% RH, 4 w): 0.17
Sepiapterin RRT 1.00 (HPLC), amount of sepiapterin ([1]; 35° C./100% RH, 4 w): 98.70%
Impurity RRT 0.62 (HPLC) ([1]; 50° C./100% RH, 1 w): 0.08
Impurity RRT 0.95 (HPLC) ([1]; 50° C./100% RH, 1 w): 1.05
Impurity RRT 1.08 (HPLC) ([1]; 50° C./100% RH, 1 w): 0.26
Impurity RRT 1.17 (HPLC) ([1]; 50° C./100% RH, 1 w): 0.16
Sepiapterin RRT 1.00 (HPLC), amount of sepiapterin ([1]; 50° C./100% RH, 1 w): 98.45%
Impurity RRT 0.62 (HPLC) ([1]; 50° C./100% RH, 4 w): 0.14
Impurity RRT 0.95 (HPLC) ([1]; 50° C./100% RH, 4 w): 2.03
Impurity RRT 1.08 (HPLC) ([1]; 50° C./100% RH, 4 w): <0.05
Impurity RRT 1.17 (HPLC) ([1]; 50° C./100% RH, 4 w): 0.18
Sepiapterin RRT 1.00 (HPLC), amount of sepiapterin ([1]; 50° C./100% RH, 4 w): 97.65%
Impurity RRT 1.08 (HPLC) ([1]; Initial): <0.05
Impurity RRT 1.17 (HPLC) ([1]; Initial): 0.17
Impurity RRT 0.62 (HPLC) ([1]; Initial, listed as Polymorph D): <0.05
Impurity RRT 0.95 (HPLC) ([1]; Initial, listed as Polymorph D): 0.69
Sepiapterin RRT 1.00 (HPLC), amount of sepiapterin ([1]; Initial, listed as Polymorph D): 99.14%
Sepiapterin RRT 1.00 (HPLC), amount of sepiapterin ([1]; Initial, listed as polymorph D): 99.14%
Impurity RRT 0.62 (HPLC) ([1]; RT/100% RH, 1 w): <0.05
Impurity RRT 0.95 (HPLC) ([1]; RT/100% RH, 1 w): 0.83
Impurity RRT 1.08 (HPLC) ([1]; RT/100% RH, 1 w): <0.05
Impurity RRT 1.17 (HPLC) ([1]; RT/100% RH, 1 w): 0.16
Sepiapterin RRT 1.00 (HPLC), amount of sepiapterin ([1]; RT/100% RH, 1 w): 99.01%
Impurity RRT 0.62 (HPLC) ([1]; RT/100% RH, 4 w): 0.09
Impurity RRT 0.95 (HPLC) ([1]; RT/100% RH, 4 w): 0.81
Impurity RRT 1.08 (HPLC) ([1]; RT/100% RH, 4 w): <0.05
Impurity RRT 1.17 (HPLC) ([1]; RT/100% RH, 4 w): 0.17
Sepiapterin RRT 1.00 (HPLC), amount of sepiapterin ([1]; RT/100% RH, 4 w): 98.92%
Purity of initial samples by HPLC [1]: 99.1 area %
% of Initial [1, 11]: 99.7%
Purity (area %) [1, 11]: 98.8 area %
% of Initial [1, 12]: 99.3%
Purity (area %) [1, 12]: 98.5 area %
% of Initial ([1]; storage 1 week, RT, 100% RH): 99.9%
Purity (area %) ([1]; storage 1 week, RT, 100% RH): 99.0 area %
% of Initial [1, 13]: 99.6%
Purity (area %) [1, 13]: 98.7 area %
% of Initial [1, 14]: 98.5%
Purity (area %) [1, 14]: 97.7 area %
% of Initial ([1]; storage 4 weeks, RT, 100% RH): 99.8%
Purity (area %) ([1]; storage 4 weeks, RT, 100% RH): 98.9 area %
Form change [2, 11]: No
Form change [2, 12]: No
Form change ([2]; storage 1 week, RT, 100% RH): No
Form change [2, 13]: No
Form change [2, 14]: No
Form change ([2]; storage 4 weeks, RT, 100% RH): No
SMILES: C[C@H](O)C(=O)C1=Nc2c(nc(N)[nH]c2=O)NC1 [Form D, sepiapterin]
Stability on storage as determined by HPLC, comparison of forms in words ([1]; 35° C., 50° C., listed as polymorph D): significantly greater stability than polymorph A
